Measured values taken from patent publication US20150284452A1, “ANTIMICROBIAL COMPOSITIONS” (priority 2012, published 2015).

Test system: S. aureus NRS384 (USA300)
Assay: MIC assay at multiple inoculum sizes
Assay type: cell-based, Staphylococcus aureus
Description: 5×10^6 cfu/ml and 75 nanomolar against an inoculum of 5×10^8 cfu/ml.

[1] = High Titer 5,000,000 CFU/well, ND = higher than highest tested concentration
[2] = High Titer 500,000,000 CFU/well, ND = higher than highest tested concentration
[3] = Low Titer 50,000,000 CFU/well, ND = higher than highest tested concentration

Lysostaphin (Sigma L9043): lysostaphin control (Sigma L9043), glycylglycine endopeptidase
MIC Rep 1 [1]: 0.0271 µM | MIC Rep 2 [1]: 0.0271 µM | MIC Ave (High Titer 5,000,000 CFU/well, average of replicates): 0.0271 µM | MIC Ave [2]: 0.2 µM | MIC Rep 2 [2]: 0.2 µM | MIC Rep 1 (Low Titer 50,000 CFU/well): 0.054 µM | MIC Rep 2 (Low Titer 50,000 CFU/well): 0.0271 µM | MIC Ave (Low Titer 50,000 CFU/well, average of replicates): 0.0407 µM | MIC Ave [3]: 0.2 µM | MIC Rep 1 [3]: 0.2 µM | MIC Rep 2 [3]: 0.2 µM
